Entries after “also recorded” stand apart in the source; their conditions may differ.
Tested on: PCP-R choroid plexus cell line
Assay: Ussing chamber electrophysiology of TRPV4 agonist-stimulated transepithelial ion transport (short-circuit current and conductance)
Format: cell-based, porcine
Description: In order to follow transepithelial ion movement, Ussing chamber electrophysiological techniques were used. The choroid plexus model is a high resistance, continuous cell line of porcine choroid plexus epithelial cells grown on permeable supports. […] The cells were mounted on electrophysiological apparatuses for analysis of transepithelial ion flux in response to inhibitory or stimulatory reagents. Filters were excised, mounted in a Ussing chamber, and connected to a DVC-1000 Voltage/Current Clamp with voltage and current electrodes on either side of the membrane. Each half of the chamber contained a tapered fluid compartment with fittings for voltage electrodes (close to the epithelial membrane) and current electrodes (at the opposite end of the chamber). The fluid chamber was water jacketed to maintain a constant temperature (37° C.). The cells were bathed in serum-free media. Media were circulated in the chambers and oxygenated by means of a 5% CO2/O2 gas lift. The spontaneous transepithelial potential difference was measured and clamped to zero, and the resultant short-circuit (SCC) was monitored continuously as a measurement of net transepithelial ion flux. As per convention, a negative deflection in the SCC was either cation secretion (from blood to CSF) or anion absorption (CSF to blood). Transepithelial resistance (TER) was recorded every 200 seconds throughout each experiment by applying a 2 mV pulse and using the resulting deflection in the SCC to calculate the TER by Ohm's law. Conductances were calculated from the change in current during the voltages pulses. Specifically conductance is the change in current divided by the magnitude of the imposed voltage. In all cases, the graphs shown in each panel represent a series of control and experimental cultures that were grown and analyzed in parallel.
After the basal current was stabilized, effectors were added to one or both sides of polarized monolayer as dictated by the physiological situation.
Further, conductance is a measurement of the permeability of the tissue to water and electrolytes. So, as the conductance goes up, one would expect greater ion and fluid permeability across the choroid plexus which is a barrier epithelium.
The same methods were used in this Example as in Example 1.

CC(C)C[C@H](NC(=O)c1cc2ccccc2s1)C(=O)N1CCN(C(=O)[C@H](CO)NS(=O)(=O)c2ccc(Cl)cc2Cl)CC1 [GSK1016790A]
change in conductance (agonist alone): large increase in the conductance | transepithelial ion transport response measured as short-circuit current (SCC) (agonist alone, added at time 0 minutes): consistent with cation secretion into the CSF

NCCC(Oc1ccc(C(F)(F)F)cc1)c1ccccc1 (stereo not shown) [norfluoxetine]
GSK1016790A-stimulated transepithelial potassium secretion in the direction of the CSF (short-circuit current, SCC) (cells pre-treated from time -10 to 0 minutes, GSK1016790A added at 0 minutes): effective at inhibiting the TRPV4-stimulated ion transport; also recorded: completely inhibited | TRPV4 agonist-induced increase in conductance (permeability) (pre-treatment before the TRPV4 agonist GSK1016790A): blocked this increased permeability

From patent US20200085767A1, “Methods for Treating Hydrocephalus” (Indian University Research and Technology Corporation, priority 2016, published 2020)
